Results taken from US8853219B2, “Compounds and compositions for cognition-enhancement, methods of making, and methods of treating” (NeuroSolis, Inc., priority 2010, dated 2014).
Read-outs that look alike come from different tables or passages of the source. One block for each compound: values may come before it.

Columns and labels:
[1] = target: T1, human muscarinic M1 receptors (Homo sapiens, UniProt P11229); assay: Stimulation of inositol phosphate production in A9L cells, human M1 (IPOne TR-FRET); type: cell-based
T1 construct: host or cells: A9L cells
T1 sequence (P11229 1-460): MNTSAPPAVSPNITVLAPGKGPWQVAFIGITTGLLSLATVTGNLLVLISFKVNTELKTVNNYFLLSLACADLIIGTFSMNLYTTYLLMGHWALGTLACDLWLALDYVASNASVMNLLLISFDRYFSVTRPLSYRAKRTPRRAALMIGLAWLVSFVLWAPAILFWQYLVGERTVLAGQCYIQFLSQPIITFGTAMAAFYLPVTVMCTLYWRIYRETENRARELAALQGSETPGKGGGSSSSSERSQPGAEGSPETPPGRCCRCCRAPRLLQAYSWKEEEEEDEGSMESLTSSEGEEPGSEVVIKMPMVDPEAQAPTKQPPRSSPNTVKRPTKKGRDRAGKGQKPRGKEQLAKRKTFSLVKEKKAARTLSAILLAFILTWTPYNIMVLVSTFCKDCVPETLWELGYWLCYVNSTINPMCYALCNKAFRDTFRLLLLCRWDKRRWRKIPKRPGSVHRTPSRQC
Procedure: (§1) Muscarinic M1 and M3 agonist activity was evaluated by measuring the stimulation of inositol phosphate (IP) production in the presence of lithium chloride from A9L cells transfected with expression plasmids containing human muscarinic M1 and M3 receptors, respectively. The cell lines were a gift from Professor W Messer, and the methods were as described in Tejada F R et al. J. Med. Chem. 2006; 49: 7518-31 except that the assay was scaled down to run in 384 well plates, and IP was measured in the cell lysates using the non-isotopic IPOne TR-FRET assay (CIS-BIO, Inc).
(§2) Cells were grown to 90% confluence in 384 well hi-base plates (Greiner Bio-One), compounds were added at suitable concentrations in growth medium containing 10 mM LiCL, buffered with an extra 10 mM HEPES (pH7.4), and incubated for 60 minutes at 37° C. Cells were lysed and assayed for IP following the manufacturer's instructions.
(§3) The value for a full agonist is 100%, while partial agonists give values below 100%.

[2] = target: T2, human muscarinic M3 receptors (Homo sapiens, UniProt P20309); assay: Stimulation of inositol phosphate production in A9L cells, human M3 (IPOne TR-FRET); type: cell-based
T2 construct: host or cells: A9L cells
T2 sequence (P20309 whole entry): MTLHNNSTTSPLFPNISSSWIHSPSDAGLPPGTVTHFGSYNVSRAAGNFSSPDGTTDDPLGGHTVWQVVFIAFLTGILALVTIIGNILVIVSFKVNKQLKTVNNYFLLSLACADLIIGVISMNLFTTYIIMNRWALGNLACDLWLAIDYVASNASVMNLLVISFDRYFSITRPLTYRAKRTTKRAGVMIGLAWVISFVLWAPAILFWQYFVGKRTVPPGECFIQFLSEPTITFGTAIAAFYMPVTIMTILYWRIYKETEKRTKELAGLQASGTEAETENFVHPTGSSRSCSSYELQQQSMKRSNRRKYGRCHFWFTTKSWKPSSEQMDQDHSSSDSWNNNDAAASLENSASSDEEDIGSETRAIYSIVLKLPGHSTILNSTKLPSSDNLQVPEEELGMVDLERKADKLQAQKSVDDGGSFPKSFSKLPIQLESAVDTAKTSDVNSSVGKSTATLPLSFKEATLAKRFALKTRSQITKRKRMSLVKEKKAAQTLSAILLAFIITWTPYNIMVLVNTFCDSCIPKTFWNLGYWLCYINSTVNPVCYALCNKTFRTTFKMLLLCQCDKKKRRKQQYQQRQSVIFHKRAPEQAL
Procedure: as §1, §2, §3

Long Evans Hooded rats = assay: In vivo measurement of salivation; design: species or system rat
Procedure: Suitable doses of test compounds or drug substances were administered using standard techniques to Long Evans Hooded rats weighing 225 to 350 grams, or CD-1 mice weighing 30 to 50 grams, which had been anesthetized using 2-3.5%% of isoflurane in oxygen. The animals were placed slightly head-down on an inclined, heated ramp. Rectal temperature was monitored using a thermocouple and the temperature of the heating pad was adjusted manually to maintain normal body temperature. Saliva was collected from the mouth by absorption onto pre-weighed slips of filter paper. The filter paper was changed periodically and the amount of saliva was measured by weighing the filter paper slips.

CD-I mice = assay: Apomorphine induced climbing model of psychosis; type: in vivo, mouse
Procedure: As described in Costall et. al. European Journal of Pharmacology 1978, 50, 39. individual CD-I mice, 1-2 months old, were placed in a cylindrical wire mesh cage (13.2 cm high×13.2 cm diameter) constructed of steel wire 1 mm thick spaced at 1.2 cm^2. Cylinders were placed in a standard OptiMICE mouse cage (29×32×9×29 cm wide and 14 cm high) with adequate wood chip bedding provided. Observations of climbing (defined as 3 or more paws off the ground) were carried out every 5 minutes at a duration of 1 minute for 30 minutes. Animals were injected subcutaneously under isoflurane anesthesia with test compounds, reference compounds, which included clozapine, haloperidol, olanzapine and xanomeline, or PBS as a control. This was followed 5 minutes later by 2 mg/kg apomorphine hydrochloride. All drugs were dissolved in PBS or a mixture of (by volume) 96% PBS and 4% hydroxypropyl-beta-cyclodextrin, and dosed at a rate of 5 ml per kilogram of body weight. Following injections, animals were replaced in the mesh cages and observed for climbing (defined as 3 or more paws off the ground) every 5 minutes for a duration of 1 minute for 60 minutes after dosing.

A-beta = A-beta in hippocampal microdialysate of Tg-2576 transgenic mice; type: in vivo, mouse; settings: single dose
Excerpt: These mice have high concentrations of A-beta in their brain tissue, thought to be the cause of neuron death in Alzheimer's disease, and accumulate amyloid plaques, recapitulating one of the hallmark pathological features of Alzheimer's disease.

[3] = system: pooled male human liver microsomes; assay: Metabolism by human liver microsomes; type: in vitro ADME; settings: 6 hours incubation
Procedure: Compounds were incubated with pooled male human liver microsomes (BD Biosciences, #452172) and an NADP-regenerating system in a phosphate buffer (pH 7.4) for a total of 6 hours. Aliquots were removed every 2 hours, and 1% formic acid was added to halt the reaction. Samples were centrifuged, filtered through 0.2 micron spinfilter and the amount of each compound in the supernatants was quantitated using LC/MS/MS.

[4] = system: inositol phosphate signaling pathway; assay: In vivo measurement of tissue inositol phosphate signaling pathway activation (hippocampus, salivary gland); settings: rat, Compound 3 1 mg/kg
Procedure: Experimental compounds or drug substances were administered using standard techniques to Long Evans Hooded rats weighing 225 to 350 grams, and which had been pretreated with a subcutaneous injection of lithium chloride at a suitable dose between 3 and 10 mmoles per kg. At suitable times the animals were briefly anesthetized using 5% isoflurane and euthanized by decapitation. The brains and submaxillary salivary glands were rapidly dissected out, and the hippocampuses were dissected from the brains. The dissected tissues were homogenized in a suitable volume of ice-cold phosphate-buffered saline containing 10 mM lithium chloride, pH7.4, using a tissue homogenizer, and used immediately or frozen in aliquots at −80 degC for future use. The concentration of inositol-1-phosphate was determined in the homogenates using the IPOne TR-FRET assay (CisBio cat no 621PAPEB), following the manufacturer's instruction

rats = assay: Salivation after transdermal iontophoretic co-delivery of agonist and antagonist from one patch; type: in vivo, rat; settings: anesthetized rats, device with 1 mg Compound 3 plus 0.01 mg antagonist
Procedure: Experimental compounds and drug substances were delivered transdermally in rats using iontophoresis as follows. The fur was shaved from the backs of Long Evans Hooded rats weighing 225 to 325 grams, using electric clippers. Experimental compounds and drug substances were formulated at suitable concentrations an aqueous mixture of the following composition:
The polyvinyl alcohol/water was heated to 95 degC until it became clear, then the other constituents were added and mixed well. The mixture was introduced into suitable molds containing a disc-shaped cavity 2.2 cm diameter and 2.2 mm deep. Molds may be fabricated using two glass sheets separated by a silicone rubber sheet with suitable sized cavities and filling ports cut-outs. The molds were subject to 3 freeze-thaw cycles at −80 degC and 20 degC until a firm cryogel was obtained. The gels were separated from the molds and trimmed into a circular shape. The gel was placed in a silicone rubber casing with one face in contact with a circular silver foil anodic electrode (22 mm dia/250 microns thick), and the assembly was placed on the shaved skin of the rat such that the other face was in contact with the skin on one side of the back of the rat. The rubber casing formed a seal over and around the gel/electrode assembly. […] This was placed on the other side of the shaved back of the rat, the edges of the gel discs being about 20 mm apart at their nearest point. A DC voltage was applied across the two patches from a constant-current DC power supply and the voltage adjusted to obtain the desired current, such that the skin of the animal completed the electrical circuit.
The devices were placed on shaved backs of anesthetized rats and salivation was measured.
The animals were placed slightly head-down on an inclined, heated ramp. Rectal temperature was monitored using a thermocouple and the temperature of the heating pad was adjusted manually to maintain normal body temperature. Saliva was collected from the mouth by absorption onto pre-weighed slips of filter paper. The filter paper was changed periodically and the amount of saliva was measured by weighing the filter paper slips.

[5] = potency class relative to carbachol

Compound: Cc1noc(C2CCCNC2)n1 (racemic) [compound 3, 3-Methyl-5-(piperidin-3-yl)-1,2,4-oxadiazole]
Salivation (Long Evans Hooded rats; anesthetized normal rats, dose-dependent between about 0.1 mg/kg and 1 mg/kg): causes salivation | huM1/A9L ED50 relative to CCh [1]: + (key: ++: potency > 10x CCh; +: potency 2-10x CCh; +/−: potency 0.5-2x CCh; −: potency < 0.5-0.1x CCh; −−: potency < 0.1x CCh; inactive: potency too low to determine) | huM3/A9L ED50 relative to CCh [2]: +/− (key: ++: potency > 10x CCh; +: potency 2-10x CCh; +/−: potency 0.5-2x CCh; −: potency < 0.5-0.1x CCh; −−: potency < 0.1x CCh; inactive: potency too low to determine) | Climbing Mean (secs) (CD-I mice; Cmpd 3 + APO + N-Methyl Scopolamine 0.3 mg/kg): unaffected by N-methylscopolamine | Climbing Mean (secs) (CD-I mice; Cmpd 3 + APO + scopolamine 0.3 mg/kg): inhibited by scopolamine | Potency in inhibiting climbing relative to reference antipsychotic (CD-I mice; sc): equipotent to haloperidol | Reduction of concentration of A-beta 1-40 in hippocampal microdialysate (A-beta): approximately 40% | Reduction of concentration of A-beta 1-42 in hippocampal microdialysate (A-beta): approximately 40% | Metabolism in human liver microsomes [3]: metabolized significantly less in human liver microsomes than in rat liver microsomes | PAMPA units: 2.56

Compound: C[N+]1(C)[C@@H]2C[C@@H](OC(=O)[C@H](CO)c3ccccc3)C[C@H]1[C@@H]1O[C@@H]12 [NMS, N-methylscopolamine]
Block of increase in salivary gland inositol phosphate caused by Compound 3 ([4]; antagonist 0.003 mg/kg): some breakthrough activation | Block of increase in salivary gland inositol phosphate caused by Compound 3 ([4]; antagonist 0.03 mg/kg to 0.01 mg/kg): nearly as effective as 0.1 mg/kg | Block of increase in salivary gland inositol phosphate caused by Compound 3 ([4]; antagonist 0.1 mg/kg): completely block | Inhibition of increase in hippocampal inositol phosphate caused by Compound 3 ([4]; antagonist 0.1 mg/kg): does not inhibit | Decrease in salivation caused by Compound 3 (Long Evans Hooded rats; Compound 3 0.3 mg/kg): dose-dependent decrease in salivation | Reduction of salivation caused by transdermal iontophoretic delivery of Compound 3 (rats): greatly reduced

Compound: Cc1noc(C2CN3CCC2CC3)n1 (centres unmarked) [Compound 37, 3-methyl-5-(quinuclidin-3-yl)-1,2,4-oxadiazole, reference compound]
huM1/A9L ED50 relative to CCh [1]: ++ (key: ++: potency > 10x CCh; +: potency 2-10x CCh; +/−: potency 0.5-2x CCh; −: potency < 0.5-0.1x CCh; −−: potency < 0.1x CCh; inactive: potency too low to determine) | Potency and efficacy at M1 muscarinic receptors ([1]; Table 12): highly potent | Selectivity for M1 versus M3 receptors ([1]; huM1/A9L versus huM3/A9L): essentially non-selective between M1 and M3 receptors | huM3/A9L ED50 relative to CCh [2]: ++ (key: ++: potency > 10x CCh; +: potency 2-10x CCh; +/−: potency 0.5-2x CCh; −: potency < 0.5-0.1x CCh; −−: potency < 0.1x CCh; inactive: potency too low to determine) | PAMPA units (PAMPA test): 3.02

The remaining lines, values ahead:

PAMPA units: 0.26
Compound: CNC(=C[N+](=O)[O-])NCCSCc1ccc(CN(C)C)o1 [Ranitidine]

huM1/A9L ED50 relative to CCh [1, 5]: − (potency < 0.5-0.1x CCh) | huM3/A9L ED50 relative to CCh [2, 5]: −− (potency < 0.1x CCh) | PAMPA units (PAMPA test): 16.3
Compound: Cc1noc(C2(F)CCCNC2)n1 (centres unmarked) [Compound 35, 5-(3-fluoropiperidin-3-yl)-3-methyl-1,2,4-oxadiazole]

PAMPA units: 7.95
Compound: Clc1cccc(Cl)c1N=C1NCCN1 [Clonidine]
